Assay results reported in ChEMBL document CHEMBL3228036, “A new chemical series active against African trypanosomes: benzyltriphenylphosphonium salts” (J Med Chem, 1979).
The source made the active and inactive calls.

Experiments:
[1] = test system: Trypanosoma brucei rhodesiense; experiment: […] activity against Trypanosoma brucei rhodesiense Wellcome CT infected in ICR/HA mouse assessed as curated mouse at 424 mg/kg, sc treated within 2 hrs of parasite infection measured up to 30 days; assay type: functional, organism-based; set-up: dose 424 mg/kg
[2] = test system: Trypanosoma brucei rhodesiense; experiment: […] activity against Trypanosoma brucei rhodesiense Wellcome CT infected in ICR/HA mouse assessed as curated mouse at 424 mg/kg, po treated within 2 hrs of parasite infection measured up to 30 days; assay type: functional, organism-based; set-up: dose 424 mg/kg
Mus musculus [3] = experiment: Toxicity in Trypanosoma brucei rhodesiense Wellcome CT infected ICR/HA mouse assessed as mortality at 424 mg/kg, po treated within 2 hrs of parasite infection measured up to 30 days; assay type: organism-based; set-up: dose 424 mg/kg, route oral; conditions: in vivo
[4] = test system: Trypanosoma brucei rhodesiense; experiment: […] activity against Trypanosoma brucei rhodesiense Wellcome CT infected in ICR/HA mouse assessed as curated mouse at 212 mg/kg, po treated within 2 hrs of parasite infection measured up to 30 days; assay type: functional, organism-based; set-up: dose 212 mg/kg
Mus musculus [5] = experiment: Toxicity in Trypanosoma brucei rhodesiense Wellcome CT infected ICR/HA mouse assessed as mortality at 212 mg/kg, po treated within 2 hrs of parasite infection measured up to 30 days; assay type: organism-based; set-up: dose 212 mg/kg, route oral; conditions: in vivo
[6] = test system: Trypanosoma brucei rhodesiense; experiment: […] activity against Trypanosoma brucei rhodesiense Wellcome CT infected in ICR/HA mouse assessed as curated mouse at 106 mg/kg, po treated within 2 hrs of parasite infection measured up to 30 days; assay type: functional, organism-based; set-up: dose 106 mg/kg
Mus musculus [7] = experiment: Toxicity in Trypanosoma rhodesiense Wellcome CT infected ICR/HA mouse assessed as mortality at 106 mg/kg, sc treated within 2 hrs of parasite infection measured up to 30 days; assay type: organism-based; set-up: dose 106 mg/kg, route subcutaneous; conditions: in vivo
[8] = test system: Trypanosoma brucei rhodesiense; experiment: […] activity against Trypanosoma brucei rhodesiense Wellcome CT infected in ICR/HA mouse assessed as curated mouse at 53 mg/kg, po treated within 2 hrs of parasite infection measured up to 30 days; assay type: functional, organism-based; set-up: dose 53 mg/kg
[9] = test system: Trypanosoma brucei rhodesiense; experiment: […] activity against Trypanosoma brucei rhodesiense Wellcome CT infected in ICR/HA mouse assessed as curated mouse at 26.5 mg/kg, sc treated within 2 hrs of parasite infection measured up to 30 days; assay type: functional
[10] = test system: Trypanosoma brucei rhodesiense; experiment: […] activity against Trypanosoma brucei rhodesiense Wellcome CT infected in ICR/HA mouse assessed as curated mouse at 26.5 mg/kg, po treated within 2 hrs of parasite infection measured up to 30 days; assay type: functional, organism-based; set-up: dose 26.5 mg/kg
[11] = test system: Trypanosoma brucei rhodesiense; experiment: […] activity against Trypanosoma brucei rhodesiense Wellcome CT infected in ICR/HA mouse assessed as curated mouse at 13.3 mg/kg, sc treated within 2 hrs of parasite infection measured up to 30 days; assay type: functional, organism-based; set-up: dose 13.3 mg/kg
[12] = test system: Trypanosoma brucei rhodesiense; experiment: […] activity against Trypanosoma brucei rhodesiense Wellcome CT infected in ICR/HA mouse assessed as curated mouse at 13.3 mg/kg, po treated within 2 hrs of parasite infection measured up to 30 days; assay type: functional, organism-based; set-up: dose 13.3 mg/kg
Mus musculus [13] = experiment: Toxicity in Trypanosoma brucei rhodesiense Wellcome CT infected ICR/HA mouse assessed as mortality at 424 mg/kg, sc treated within 2 hrs of parasite infection measured up to 30 days; assay type: organism-based; set-up: dose 424 mg/kg, route subcutaneous; conditions: in vivo

Measured: Activity

FC(F)(F)c1ccc(C[P+](c2ccccc2)(c2ccccc2)c2ccccc2)cc1.[Cl-]
inactive: [1] | [2] | [4] | [6] | [8] | [9] | [10] | [11] | [12]
Toxic: Mus musculus [3] | Mus musculus [5] | Mus musculus [7] | Mus musculus [13]
